# According to PMC4463742, “A new family of StART domain proteins at membrane contact sites has a role in ER-PM sterol transport” (eLife, 2015):
# Columns and labels:
# [1] = target: T1, Ysp2p (Saccharomyces cerevisiae, UniProt Q06681); experiment: competition of tryptophan-DHE FRET with purified domain; format: binding
# T1 construct: gene YSP2; StART-like domains Ysp2S1 (829-1027) and Ysp2S2 (1027-1244), His-tagged, each measured
# [2] = target: T2, Lam4p (Saccharomyces cerevisiae, UniProt P38800); experiment: co-purification of […]-labelled cholesterol from HL60 cells (TLC); competition of DHE FRET; format: binding
# T2 construct: gene LAM4
# [3] = target: T2, Lam4p; experiment: biochemical
# [4] = target: T1, Ysp2p; experiment: tryptophan-DHE FRET with purified domain; format: binding
# T1 sequence (Q06681 829-1244): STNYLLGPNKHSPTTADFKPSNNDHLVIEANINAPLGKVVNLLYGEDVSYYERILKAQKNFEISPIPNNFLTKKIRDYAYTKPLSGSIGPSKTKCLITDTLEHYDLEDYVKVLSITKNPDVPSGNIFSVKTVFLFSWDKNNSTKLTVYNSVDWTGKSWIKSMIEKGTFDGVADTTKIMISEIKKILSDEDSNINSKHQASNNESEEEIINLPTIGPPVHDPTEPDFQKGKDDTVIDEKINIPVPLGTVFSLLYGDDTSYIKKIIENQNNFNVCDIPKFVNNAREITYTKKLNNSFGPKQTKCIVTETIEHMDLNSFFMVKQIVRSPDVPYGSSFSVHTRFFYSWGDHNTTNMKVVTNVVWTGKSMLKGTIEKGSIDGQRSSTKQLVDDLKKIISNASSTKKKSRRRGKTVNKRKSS
# T2 sequence (P38800 946-1155): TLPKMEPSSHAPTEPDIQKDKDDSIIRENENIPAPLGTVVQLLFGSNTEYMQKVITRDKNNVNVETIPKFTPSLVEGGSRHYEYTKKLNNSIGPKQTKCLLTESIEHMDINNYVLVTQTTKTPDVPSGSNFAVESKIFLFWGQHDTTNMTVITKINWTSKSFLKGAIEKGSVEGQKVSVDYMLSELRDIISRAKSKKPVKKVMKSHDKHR
Compound,competition of tryptophan-DHE FRET with purified domain [1],co-purification of 14C-labelled cholesterol from HL60 cells (TLC); competition o [2],Kd [3] [nM],tryptophan-DHE FRET with purified domain [4]
"CC(C)[C@@H](C)/C=C/[C@@H](C)[C@H]1CC[C@H]2C3=CC=C4C[C@@H](O)CC[C@]4(C)[C@H]3CC[C@]12C [erg, ergosterol]",All four purified StART-like domains bound both cholesterol (the predominant sterol in mammals) and ergosterol,,,
"CC(C)CCC[C@@H](C)[C@H]1CC[C@H]2[C@@H]3CC=C4C[C@@H](O)CC[C@]4(C)[C@H]3CC[C@]12C [chol, cholesterol]",All four purified StART-like domains bound both cholesterol (the predominant sterol in mammals) and ergosterol,Lam4S2 extracted cholesterol but no other lipids from labelled HL60 cells,,
"CC(C)[C@@H](C)/C=C/[C@@H](C)[C@H]1CC[C@H]2C3=CC=C4C[C@@H](O)CC[C@]4(C)C3=CC[C@]12C [DHE, dehydroergosterol]",,,500,these proteins all produced strong FRET signals with DHE
